Our source for the IC50 values is patent publication US8664257B2, “Oxygen-substituted 3-heteroaroylamino-propionic acid derivatives and their use as pharmaceuticals” (Sanofi, priority 2010, dated 2014).

Each structure is given as a SMILES string. Some results are limits rather than exact numbers.

In one test the target is T1, Recombinant human cathepsin A (Homo sapiens, UniProt P10619).
T1 construct: Recombinant human cathepsin A (residues 29-480, with a C-terminal 10-His tag); 10-His (C); purchased R&D Systems 1049-SE
T1 sequence (P10619 29-312 limits assumed): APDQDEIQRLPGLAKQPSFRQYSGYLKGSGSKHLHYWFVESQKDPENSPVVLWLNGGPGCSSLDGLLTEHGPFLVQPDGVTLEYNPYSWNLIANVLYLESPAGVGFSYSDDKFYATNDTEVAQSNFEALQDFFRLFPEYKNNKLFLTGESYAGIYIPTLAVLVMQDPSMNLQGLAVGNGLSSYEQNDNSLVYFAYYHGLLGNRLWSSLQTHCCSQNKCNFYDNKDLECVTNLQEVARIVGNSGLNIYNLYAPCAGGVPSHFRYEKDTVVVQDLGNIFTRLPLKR
T1 sequence (P10619 327-480 limits assumed): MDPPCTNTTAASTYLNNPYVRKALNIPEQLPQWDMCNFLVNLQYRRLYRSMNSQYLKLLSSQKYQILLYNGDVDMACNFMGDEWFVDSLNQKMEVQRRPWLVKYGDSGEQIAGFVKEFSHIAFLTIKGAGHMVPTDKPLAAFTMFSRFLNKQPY
Description: Cathepsin A inhibitory activity. Type of test: biochemical. The conditions noted are these: pharmacological test "Cathepsin A inhibitory activity"; IC50 given as class A/B/C; read-out: Activity (2): Cathepsin A inhibitory activity, IC50 class. Summed up: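 Read-out was microfluidic separation of cleaved vs. uncleaved Bodipy FL-bradykinin (2 μM), giving turnover, % inhibition and IC50. Compound and 833 ng/ml enzyme met for 15 min RT in pH 5.5 MES/DTT before substrate (15 min RT). The 29-480 His-tagged human enzyme was first activated by cathepsin L, then E-64 (10 μM).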
One may read the IC50 as the midpoint of a concentration-inhibition curve. As for `COc1ccccc1[C@@H](NC(=O)c1cc(O)n(-c2ccc(F)cc2F)n1)[C@@H](O)C(=O)O` [Example 188], the IC50 lay within 1000 to 30000 nM.
On the same count and under the same terms, the figure for `COc1ccc(C(CC(=O)O)NC(=O)c2cc(O)n(-c3ccccc3F)n2)c(OC)c1` (centres unmarked) [Example 232] is 100 to 1000 nM.
Still for that read-out and setting: the figure for `O=C(O)C[C@H](NC(=O)c1cc(O)n(-c2ccccc2)n1)c1ccc(F)cc1` [Example 163] is 100 to 1000 nM.
Still for that read-out and setting: the figure for `O=C(O)CC(NC(=O)c1cc(O)n(-c2ccccc2)n1)c1ccc(-c2cccc(F)c2)cc1` (centres unmarked) [Example 171] is 100 to 1000 nM; for `COc1ccc(C(CC(=O)O)NC(=O)c2cc(O)n(-c3ccccc3)n2)c(OC)c1` (centres unmarked) [Example 161] it is 1000 to 30000 nM.
For the compound `COc1ccccc1[C@@H](NC(=O)c1cc(O)n(-c2ccccc2)n1)[C@@H](O)C(=O)O` [Example 169], the IC50 was 1000 to 30000 nM.
On to `O=C(O)CC(NC(=O)c1cc(O)n(-c2ccccc2F)n1)c1cccc(Cl)c1F` (centres unmarked) [Example 244], for which the IC50 fell in the range of 100 to 1000 nM.
Still for that read-out and setting: with `O=C(O)C[C@@H](NC(=O)c1cc(O)n(-c2ccccc2F)n1)c1ccc(-c2ccc(F)cc2)cc1` [Example 147] the figure was under 100 nM.
The same measure, in the same setting: with `Cc1ccc(C(CC(=O)O)NC(=O)c2cc(O)n(-c3ccc(F)cc3F)n2)c(C)c1` (centres unmarked) [Example 195] the figure was 100 to 1000 nM.
Still for that read-out and setting: with `O=C(O)C[C@@H](NC(=O)c1cc(O)n(-c2ccccc2Cl)n1)c1ccc(-c2ccc(F)cc2)cc1` [Example 149] the figure was under 100 nM.

The test is the same for the next values; noted with them: read-out: Activity (2): Cathepsin A inhibitory activity (IC50 class).
Consider `COc1cc(C(=O)N[C@@H](CC(=O)O)c2cccc(Cl)c2Cl)nn1-c1ccccc1F` [Example 681], for which the IC50 is under 100 nM.
On to `CCC(C)(O)COc1cc(C(=O)N[C@@H](CC(=O)O)c2ccccc2C)nn1-c1ccccc1F` (some centres unmarked) [Example 750], for which the IC50 is under 100 nM.
On the same count and under the same terms, with `O=C(O)CC(NC(=O)c1cc(O)n(-c2cc(F)cc(F)c2)n1)c1ccc(-c2ccc(F)cc2)cc1` (centres unmarked) [Example 587] the figure was 1000 to 30000 nM; with `Cc1ccccc1[C@H](CC(=O)O)NC(=O)c1cc(OCC2CC2)n(-c2ccccc2F)n1` [Example 612], under 100 nM; with `COc1cc(-c2ccccc2)ccc1C(CC(=O)O)NC(=O)c1cc(O)n(-c2ccccc2F)n1` (centres unmarked) [Example 551, 3-{[1-(2-Fluoro-phenyl)-5-hydroxy-1H-pyrazole-3-carbonyl]-amino}-3-(3-methoxy-biphenyl-4-yl)-propionic acid], 100 to 1000 nM.
The same measure, in the same setting: the figure for `COc1cc(C(=O)NC(CC(=O)O)c2ccc(-c3ccccn3)cc2)nn1-c1ccccc1` (centres unmarked) [Example 597, 3-[(5-Methoxy-1-phenyl-1H-pyrazole-3-carbonyl)-amino]-3-(4-pyridin-2-yl-phenyl)-propionic acid] is 100 to 1000 nM.
On to `O=C(O)CC(NC(=O)c1cc(OCC2CC2)n(-c2ccccc2F)n1)c1ccc(F)cc1` (centres unmarked) [Example 698], for which the IC50 is 100 to 1000 nM.
Same read-out and setting: the figure for `CCC(O)COc1cc(C(=O)N[C@@H](CC(=O)O)c2ccccc2C)nn1-c1ccccc1F` (some centres unmarked) [Example 755] is under 100 nM; for `Cc1ccccc1[C@H](CC(=O)O)NC(=O)c1cc(OCC(C)O)n(-c2ccccc2F)n1` (some centres unmarked) [Example 749] it is under 100 nM.
Still for that read-out and setting: the figure for `COc1cc(C(=O)N[C@@H](CC(=O)O)c2ccc(Cl)cc2Cl)nn1-c1ccccc1F` [Example 673] is under 100 nM; for `Cc1ccccc1[C@H](CC(=O)O)NC(=O)c1cc(OCC(=O)C(C)(C)C)n(-c2ccccc2F)n1` [Example 700, (S)-3-{[5-(3,3-Dimethyl-2-oxo-butoxy)-1-(2-fluoro-phenyl)-1H-pyrazole-3-carbonyl]-amino}-3-o-tolyl-propionic acid] it is under 100 nM.

Staying with this test, now noted: read-out: Activity (2): Cathepsin A inhibitory activity, IC50 class.
For the compound `O=C(O)CC(NC(=O)c1cc(O)n(-c2cccc(F)c2)n1)c1ccccc1F` (centres unmarked) [Example 308], the IC50 lay in the range of 100 to 1000 nM.
As for `COc1ccccc1[C@H](CC(=O)O)NC(=O)c1cc(O)n(-c2ccc(F)cc2)n1` [Example 342], the half-inhibitory concentration (IC50) fell in the range of 100 to 1000 nM.
On the same count and under the same terms, with `CC(C)(C)[C@](C)(O)COc1cc(C(=O)N[C@@H](CC(=O)O)c2cccc(Cl)c2)nn1-c1ccccc1F` [Example 798, (S)-3-(3-Chloro-phenyl)-3-{[1-(2-fluoro-phenyl)-5-((S)-2-hydroxy-2,3,3-trimethyl-butoxy)-1H-pyrazole-3-carbonyl]-amino}-propionic acid] the figure was under 100 nM; with `Cc1cccc([C@H](CC(=O)O)NC(=O)c2cc(OC[C@H](O)C(C)(C)C)n(-c3ccccc3F)n2)c1` [Example 804, (S)-3-{[1-(2-Fluoro-phenyl)-5-((R)-2-hydroxy-3,3-dimethyl-butoxy)-1H-pyrazole-3-carbonyl]-amino}-3-m-tolyl-propionic acid], under 100 nM.
Still for that read-out and setting: the figure for `O=C(O)CC(NC(=O)c1cc(O)n(-c2ccccc2)n1)c1cc(F)cc(F)c1` (centres unmarked) [Example 70] is 1000 to 30000 nM; for `Cc1ccccc1[C@H](CC(=O)O)NC(=O)c1cc(O)n(-c2ccccc2Cl)n1` [Example 77] it is under 100 nM.
Consider `Cc1ccc(C(CC(=O)O)NC(=O)c2cc(O)n(-c3ccc(Cl)cc3)n2)c(C)c1` (centres unmarked) [Example 291], for which the IC50 is 100 to 1000 nM.
`O=C(O)C[C@H](NC(=O)c1cc(O)n(-c2ccc(F)cc2)n1)c1ccc(F)cc1` [Example 346]: the IC50 was 1000 to 30000 nM.

The same test, now with this note: recombinant human cathepsin A 833 ng/ml, Bodipy FL-labeled bradykinin 2 μM, pH 5.5; read-out: CATH-A IC50.
Turning to `Cc1c(F)cccc1C(CC(=O)O)NC(=O)c1cc(O)n(-c2ccccc2)n1` (centres unmarked) [Example 494, 3-(3-Fluoro-2-methyl-phenyl)-3-[(5-hydroxy-1-phenyl-1H-pyrazole-3-carbonyl)-amino]-propionic acid], the IC50 was found to be 142 nM.
Still for that read-out and setting: the figure for `COc1cc(-c2ccccc2)ccc1C(CC(=O)O)NC(=O)c1cc(O)n(-c2ccccc2F)n1` (centres unmarked) [Example 551, 3-{[1-(2-Fluoro-phenyl)-5-hydroxy-1H-pyrazole-3-carbonyl]-amino}-3-(3-methoxy-biphenyl-4-yl)-propionic acid] is 352 nM; for `O=C(O)CC(NC(=O)c1cc(O)n(-c2cccc(Cl)c2)n1)c1ccc(-c2ccccn2)cc1` (centres unmarked) [Example 513, 3-{[1-(3-Chloro-phenyl)-5-hydroxy-1H-pyrazole-3-carbonyl]-amino}-3-(4-pyridin-2-yl-phenyl)-propionic acid] it is 195 nM.

Staying with this test, now noted: recombinant human cathepsin A; read-out: Activity (2): Cathepsin A inhibitory activity, IC50 class.
For `COC[C@H](C)NC(=O)C[C@H](NC(=O)c1cc(OC)n(-c2ccccc2F)n1)c1ccccc1C` [Example 937, 1-(2-Fluoro-phenyl)-5-methoxy-1H-pyrazole-3-carboxylic acid [(S)-2-((S)-2-methoxy-1-methyl-ethylcarbamoyl)-1-o-tolyl-ethyl]-amide], the IC50 is under 100 nM.
On the same count and under the same terms, the figure for `Cc1c(F)cccc1C(CC(=O)O)NC(=O)c1cc(O)n(-c2ccccc2)n1` (centres unmarked) [Example 494, 3-(3-Fluoro-2-methyl-phenyl)-3-[(5-hydroxy-1-phenyl-1H-pyrazole-3-carbonyl)-amino]-propionic acid] is 100 to 1000 nM; for `COc1ccc([C@H](CC(=O)O)NC(=O)c2cc(O)n(-c3cccc(F)c3)n2)cc1` [Example 427] it is 1000 to 30000 nM; for `COc1ccc([C@H](CC(=O)O)NC(=O)c2cc(O)n(-c3cccc(Cl)c3)n2)cc1` [Example 409] it is 1000 to 30000 nM.
On the same count and under the same terms, the figure for `O=C(O)CC(NC(=O)c1cc(O)n(-c2cccc(Cl)c2)n1)c1ccc(-c2ccccn2)cc1` (centres unmarked) [Example 513, 3-{[1-(3-Chloro-phenyl)-5-hydroxy-1H-pyrazole-3-carbonyl]-amino}-3-(4-pyridin-2-yl-phenyl)-propionic acid] is 100 to 1000 nM; for `Cc1ccc(C)c(C(CC(=O)O)NC(=O)c2cc(O)n(-c3ccccc3F)n2)c1` (centres unmarked) [Example 406] it is 100 to 1000 nM.
The same measure, in the same setting: with `O=C(O)C[C@H](NC(=O)c1cc(O)n(-c2cccc(F)c2)n1)c1cccc(Cl)c1Cl` [Example 428] the figure was 100 to 1000 nM.
Take `Cc1ccccc1[C@H](CC(=O)O)NC(=O)c1cc(O)n(-c2ccccc2C)n1` [Example 532]: the IC50 is under 100 nM.
The same measure, in the same setting: with `CCC(C)(C)NC(=O)C[C@H](NC(=O)c1cc(OC)n(-c2ccccc2F)n1)c1ccccc1C` [Example 917, 1-(2-Fluoro-phenyl)-5-methoxy-1H-pyrazole-3-carboxylic acid [(S)-2-(1,1-dimethyl-propylcarbamoyl)-1-o-tolyl-ethyl]-amide] the figure was 1000 to 30000 nM.
